Assay results taken from patent US8901138B2, “Sulfoximine substituted quinazolines for pharmaceutical compositions” (Boehringer Ingelheim International GmbH, priority 2012, dated 2014).

Molecular target: T1, MNK2a (Homo sapiens, UniProt Q9HBH9)
T1 construct: made in house
Assay: MNK2a in vitro kinase assay (assay 1), ADP-Glo
Assay type: biochemical
Settings: preactivated GST-MNK2a, 20 μM ATP, read-out: MNK2 IC50
Method: A. MNK2a In Vitro Kinase Assay (Assay 1)
ASSAY SETUP: The inhibition of kinase activity of MNK2a was assessed using preactivated GST-MNK2a. The white, 384-well OptiPlate F plates were purchased from Perkin Elmer. The ADP-Glo Kinase Assay (including ultra pure ATP) was purchased from Promega (V9103). Activated MNK2a was obtained as described in WO2011/104340. The unlabeled eIF4E peptide (NH2-[…]—CONH2) (SEQ ID NO: 1), differing from Seq. ID No. 5 of WO 2011/104340 by the C-terminal —CONH2 group, was purchased from Thermo Fisher Scientific. All other materials were of highest grade commercially available. Compounds are tested in either serial dilutions or single dose concentrations. The compound stock solutions are 10 mM in 100% DMSO The serial compound dilutions are prepared in 100% DMSO followed by 1:27.3 intermediate dilution in assay buffer. The final DMSO concentration in assay will be <3%. In the 384-well plates 3 μl of test compound from the intermediate dilution is mixed with 4 μl of the activated MNK2 enzyme (final concentration of 10 nM) and 4 μl of the peptide (final concentration of 25 μM)/ultra pure ATP (final concentration of 20 μM), all dissolved in assay buffer. This step is followed by an incubation time of 90 min, then 10 μl of ADP Glo reagent are added, followed by 40 min of incubation. Then 20 μl of kinase detection reagent are admixed. The plates are sealed and after an incubation period of 30 min, the luminescence signal is measured in an Envision reader to determine the amount of produced ADP. All incubation steps are performed at room temperature. The assay buffer consists of 20 mM HEPES, 2 mM DTT, 0.01% BSA, 20 mM MgCl2 and 0.1% Pluronic F-127.
Each assay microtiter plate contains wells with vehicle controls instead of compound (1% DMSO in water) as reference for the high signal (100% CTL, high signal), and wells containing a potent MNK2 inhibitor (final 20 μM, 1% DMSO) as reference for low signal (0% CTL, low signal).
The luminescent signal generated is proportional to the ADP concentration produced and is correlated with activated MNK2 activity. The analysis of the data is performed by the calculation of the percentage of ATP consumption of activated MNK2 in the presence of the test compound compared to the consumption of ATP in the presence of activated MNK2 without compound. (RLU(sample)−RLU(low control))*100/(RLU(high value)−RLU(low control)) [RLU=relative luminescence units]
An inhibitor of the MNK2 enzyme will give values between 100% CTL (no inhibition) and 0% CTL (complete inhibition). Values of more than 100% CTL are normally related to compound/sample specific physico-chemical properties (e.g. solubility, light absorbance, fluorescence).
IC50 values based on dose response curves are calculated with the AssayExplorer software.

T1 sequence (Q9HBH9 whole entry): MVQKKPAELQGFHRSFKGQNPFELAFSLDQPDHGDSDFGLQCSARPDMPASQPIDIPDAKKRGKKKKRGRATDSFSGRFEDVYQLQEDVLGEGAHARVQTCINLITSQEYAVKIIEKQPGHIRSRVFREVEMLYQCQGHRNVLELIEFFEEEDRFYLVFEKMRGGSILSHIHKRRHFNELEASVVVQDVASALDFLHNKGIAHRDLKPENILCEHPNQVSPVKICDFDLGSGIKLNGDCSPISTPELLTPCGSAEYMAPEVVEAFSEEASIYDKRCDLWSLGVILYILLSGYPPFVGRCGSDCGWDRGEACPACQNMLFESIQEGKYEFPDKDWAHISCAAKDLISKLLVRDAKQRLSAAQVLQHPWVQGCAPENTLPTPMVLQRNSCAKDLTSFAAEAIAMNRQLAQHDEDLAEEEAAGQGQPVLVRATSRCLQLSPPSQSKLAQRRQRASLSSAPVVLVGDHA

Row | SMILES | IC50 [nM]
1 | Cc1cc(N=S(C)(C)=O)cc2ncnc(Nc3ccc(F)cc3OC3CCC(O)C3)c12 (racemic) [Example 4.3] | 3
2 | CS(C)(=O)=Nc1cc(Cl)c2c(Nc3ccc(F)cc3O[C@@H]3CO[C@H]4[C@@H]3OC[C@@H]4O)ncnc2c1 [Example 1.3] | 1
3 | CS(C)(=O)=Nc1cc(C(F)(F)F)c2c(Nc3ccc(F)cc3O[C@H]3CCOC3)ncnc2c1 [Example 1.5] | 3
4 | CS(C)(=O)=Nc1cc(Cl)c2c(Nc3ccc(F)cc3O[C@@H]3CO[C@H]4[C@@H]3OC[C@H]4O)ncnc2c1 [Example 1.6] | 1
5 | O=S1(=Nc2cc(Cl)c3c(Nc4ccc(F)cc4O[C@@H]4CO[C@@H]5CCO[C@@H]54)ncnc3c2)CCCC1 [Example 1.7] | 1
6 | O=S1(=Nc2cc(Cl)c3c(Nc4ccc(F)cc4O[C@H]4CCOC4)ncnc3c2)CCCC1 [Example 1.8] | 1
7 | CS(C)(=O)=Nc1cc(Br)c2c(Nc3ccc(F)cc3O[C@H]3CCOC3)ncnc2c1 [Example 1.11] | 1
8 | CO[C@@H]1CO[C@H]2[C@@H]1OC[C@H]2Oc1cc(F)ccc1Nc1ncnc2cc(N=S3(=O)CCCC3)cc(Cl)c12 [Example 1.13] | 1
9 | CS(C)(=O)=Nc1cc(Cl)c2c(Nc3ccc(F)cc3O[C@H]3CCOC3)ncnc2c1 [Example 1.14] | 1
10 | CS(C)(=O)=Nc1cc(Cl)c2c(Nc3cccnc3O[C@H]3CC[C@H](O)CC3)ncnc2c1 [Example 1.16] | 1
11 | Cc1cc(N=S(C)(C)=O)cc2ncnc(Nc3ccc(F)cc3O[C@@H]3CC[C@H]3O)c12 [Example 1.34] | 3
12 | Cc1cc(N=S(C)(C)=O)cc2ncnc(Nc3ccc(F)cc3O[C@@H]3CCCC[C@@H]3O)c12 [Example 1.39] | 7
13 | Cc1cc(N=S(C)(C)=O)cc2ncnc(Nc3ccc(F)cc3O[C@@H]3CCOC3)c12 [Example 2.5] | 3
14 | COc1cc(N=S2(=O)CCCC2)cc2ncnc(Nc3ccc(F)cc3O[C@@H]3CO[C@H]4[C@@H]3OC[C@H]4OC)c12 [Example 2.9] | 1
15 | COc1cc(N=S2(=O)CCCC2)cc2ncnc(Nc3cccnc3O[C@H]3CC[C@H](O)CC3)c12 [Example 2.18] | 1
16 | CCS(C)(=O)=Nc1cc(C)c2c(Nc3ccc(F)cc3O[C@H]3CC[C@H](O)CC3)ncnc2c1 (stereo partly shown) [Example 2.22] | 3
17 | Cc1cc(N=S2(=O)CCCC2)cc2ncnc(Nc3ccc(F)cc3OC3COCCOC3)c12 [Example 2.25] | 2
18 | CS(C)(=O)=Nc1cc(F)c2c(Nc3ccc(F)cc3OC3CCCC3)ncnc2c1 [Example 2.29] | 3
19 | Cc1cc(N=S2(=O)CCCC2)cc2ncnc(Nc3ccc(F)cc3O[C@@H]3CO[C@H]4[C@@H]3OC[C@H]4O)c12 [Example 2.36] | 2
20 | Cc1cc(N=S(C)(C)=O)cc2ncnc(Nc3ccc(F)cc3O[C@@H]3CO[C@@H]4CCO[C@@H]43)c12 [Example 2.39] | 2
21 | Cc1cc(N=S2(=O)CCCC2)cc2ncnc(Nc3ccc(F)cc3O[C@@H]3CO[C@@H]4CCO[C@@H]43)c12 [Example 2.42] | 1
22 | CO[C@@H]1CO[C@H]2[C@@H]1OC[C@H]2Oc1cc(F)ccc1Nc1ncnc2cc(N=S3(=O)CCCC3)cc(C)c12 [Example 2.43] | 1

Row | SMILES | IC50 [nM]
23 | CO[C@H]1CC[C@H](Oc2cc(F)ccc2Nc2ncnc3cc(N=S4(=O)CCCC4)cc(C)c23)CC1 [Example 2.48] | 2
24 | Cc1cc(N=S(C)(C)=O)cc2ncnc(Nc3ccc(F)cc3OC3COCCOC3)c12 [Example 2.60] | 3
25 | CO[C@H]1CC[C@H](Oc2ncccc2Nc2ncnc3cc(N=S(C)(C)=O)cc(C)c23)CC1 [Example 2.68] | 3
26 | Cc1cc(N=S2(=O)CCCC2)cc2ncnc(Nc3cccnc3O[C@H]3CC[C@H](O)CC3)c12 [Example 2.69] | 2
27 | Cc1cc(N=S(C)(C)=O)cc2ncnc(Nc3ccc(F)cc3OC3CCCC3)c12 [Example 2.70] | 2
28 | Cc1cc(N=S(C)(C)=O)cc2ncnc(Nc3ccc(F)cc3O[C@H]3CC[C@H](O)CC3)c12 [Example 2.71] | 3
29 | Cc1cc(N=S(C)(C)=O)cc2ncnc(Nc3ccc(F)cc3O[C@H]3CC[C@@](C)(O)CC3)c12 [Example 2.74] | 3
30 | Cc1cc(N=S2(=O)CCCCC2)cc2ncnc(Nc3ccc(F)cc3O[C@H]3CCOC3)c12 [Example 2.78] | 3
31 | Cc1cc(N=S2(=O)CCCC2)cc2ncnc(Nc3ccc(F)cc3O[C@@H]3CO[C@H]4[C@@H]3OC[C@@H]4O)c12 [Example 2.83] | 1
32 | CS(C)(=O)=Nc1cc(F)c2c(Nc3ccc(F)cc3O[C@H]3CCOC3)ncnc2c1 [Example 2.89] | 3
33 | COc1cc(N=S2(=O)CCCC2)cc2ncnc(Nc3ccc(F)cc3O[C@H]3CC[C@H](O)CC3)c12 [Example 2.90] | 2
34 | Cc1cc(N=S2(=O)CCC(O)C2)cc2ncnc(Nc3ccc(F)cc3O[C@H]3CCOC3)c12 (stereo partly shown) [Example 2.93] | 4
35 | Cc1cc(N=S(C)(=O)c2ccncc2)cc2ncnc(Nc3ccc(F)cc3O[C@@H]3CO[C@@H]4CCO[C@@H]43)c12 (stereo partly shown) [Example 2.96] | 4
36 | COC1CS(=O)(=Nc2cc(C)c3c(Nc4ccc(F)cc4O[C@@H]4CO[C@@H]5CCO[C@@H]54)ncnc3c2)C1 (stereo partly shown) [Example 2.105] | 2
37 | Cc1cc(N=S(C)(C)=O)cc2ncnc(Nc3ccc(F)cc3O[C@H]3C[C@H](N)C3)c12 [Example 3.14] | 2
38 | Cc1cc(N=S2(=O)CCCC2)cc2ncnc(Nc3ccc(F)cc3OC3CCc4ccccc43)c12 (stereo not shown) [Example 4.6] | 3
39 | COc1cc(N=S(C)(C)=O)cc2ncnc(Nc3ccc(F)cc3O[C@H]3CCOC3)c12 [Example 5.2] | 2
40 | Cc1cc(N=S2(=O)CCCC2)cc2ncnc(Nc3ccc(F)cc3O[C@@H]3CCCN(S(C)(=O)=O)C3)c12 [Example 6.3] | 2
41 | Cc1cc(N=S2(=O)CCCC2)cc2ncnc(Nc3ccc(F)cc3O[C@@H]3CCN(CC(F)F)C3)c12 [Example 6.4] | 2
42 | Cc1cc(N=S(C)(C)=O)cc2ncnc(Nc3ccc(F)cc3O[C@@H]3CCN(CC(F)F)C3)c12 [Example 6.14] | 3
43 | CCc1cc(N=S(C)(C)=O)cc2ncnc(Nc3ccc(F)cc3O[C@H]3CCOC3)c12 [Example 7.8] | 9
